Test [1] has as its system R3 cells (osteoclast precursor cells existing in an inflammatory synovial membrane). Description: Suppression of differentiation of R3 cells into osteoclasts (in vitro). The settings on record: 10 ng/ml M-CSF, 100 ng/ml RANKL, 0.5, 1, or 2 μM thiostrepton, 96-well plate, FIG. 2. Format: cell-based, mouse. The text has this:
FIG. 2 is figures showing the effect of thiostrepton on the osteoclast differentiation of R3s (in vitro). Photographs indicate that osteoclast differentiation is suppressed by thiostrepton administration (reds show osteoclasts, and greens show precursor cells).
A) CD45-positive cells of blood and a synovial membrane of a collagen-induced arthritis model mouse (CIA model) were selected by flow cytometry, and the cell fractions were identified with the fluorescence of CX3CR1-EGFP and Ly6C-APC. A CX3CR1lowLy6Chi fraction in blood was defined as R1, a CX3CR1lowLy6Chi fraction in an inflammatory synovial membrane was defined as R2, and a CX3CR1hiLy6Cint fraction was defined as R3 (FIG. 1A).

Test [2] concerns Collagen-induced arthritis (CIA) mice. Description: Effect in collagen-induced arthritis (CIA) model mouse (in vivo). Details: species or system DBA-1/J mice. The settings on record: 20 mg/kg or 50 mg/kg intraperitoneally every other day from the twenty-first day, compared with the control group. Here is the method: Collagen-induced arthritis (CIA) mice were divided into three groups, and 20 mg/kg or 50 mg/kg of thiostrepton or a base (contrast) was intraperitoneally administered every other day from the twenty-first day. Methods for producing and evaluating CIA mice are as follows.
Arthritis was caused using 8- to 10-week-old DBA-1/J mice. Chicken type II collagen was dissolved in a 0.05 M acetic acid solution and rotated at 4° C. all night to make a solution at a concentration of 4.0 mg/ml, and the solution was mixed with the same volume of Freund's complete adjuvant. On the first day, 100 μl of the emulsion was injected into the tail of each of the above-mentioned DBA-1/J mice for immunization, and the administration was repeated in the same way on the twenty-first day. The severity of arthritis was evaluated in accordance with a semi-quantitative score method which consists of an established 5-point scale. The scale is as follows: 0: no swelling, 1: slight swelling only in the heel or the tarsal bones, 2: slight swelling from the heel to the tarsal bones, 3: considerable swelling from the heel to the metatarsal articulation, and 4: severe swelling spreading over an area including the heel, the foot, and the toes. […]
Image analysis using micro-CT was performed. The osteoclastic score was determined with reference to previous study (refer to O'Brien, Arthritis Rheumatol. 2016).

Test [3] relates to CX3CR1-positive HLA-DRhi cells from synovial fluid and articulation tissue of a rheumatoid arthritis patient. Nature of the test: Osteoclast differentiation of CX3CR1-positive HLA-DRhi cells of a rheumatoid arthritis patient. Format: cell-based. The settings on record: human RA patient cells, 50 ng/ml M-CSF, 100 ng/ml RANKL, 0.5 μM thiostrepton, 96-well plate; FIG. 5B. Here is the method:
The photographs indicate that the osteoclast differentiation is inhibited by thiostrepton administration.
When these cells were collected by flow cytometry and cultured on a 96-well plate with 50 ng/ml M-CSF, 100 ng/ml RANKL, and 0.5 μM thiostrepton added.

Entries after “also recorded” stand apart in the source; their conditions may differ.

Regarding `C=C(NC(=O)C(=C)NC(=O)c1csc(C2=N[C@@H]3c4csc(n4)[C@H]4NC(=O)c5csc(n5)[C@H]([C@](C)(O)[C@@H](C)O)NC(=O)[C@H]5CSC(=N5)/C(=C/C)NC(=O)[C@H]([C@@H](C)O)NC(=O)c5csc(n5)[C@]3(CC2)NC(=O)[C@H](C)NC(=O)C(=C)NC(=O)[C@H](C)NC(=O)[C@H]([C@@H](C)CC)N[C@@H]2C=Cc3c([C@H](C)O)cc(nc3[C@H]2O)C(=O)O[C@@H]4C)n1)C(N)=O` [thiostrepton], the “capability to differentiate into osteoclasts (number of nuclei contained in osteoclasts in one visual field)” value in test [1] is given as “remarkably suppressed”. Besides, the arthritis score entry in test [2] (FIG. 3A) is reported as “decreased significantly”. Further, the “osteoclastic score imaged by micro-CT (erosion score)” value in test [2] (FIG. 3B) is listed as “decreased significantly”. The “differentiation into osteoclasts (number of nuclei contained in osteoclasts in one visual field)” value in test [3] is on record as “inhibited; also recorded: significantly suppressed”.

These data come from patent publication US20210393734A1, “THERAPEUTIC AGENT FOR ARTHRITIS” (OSAKA UNIVERSITY, priority 2018, published 2021).
